{
  "source": "Sander's compilation of Henry's law constants (doi:10.1016/j.watres.2017.04.074)",
  "assay": "Henry solubility constant Hcp at 298.15 K (mol/(m3 Pa))",
  "conditions": "reference: Chao et al. (2017)",
  "data": [
    {"smiles": "O=[N+]([O-])c1cccc(Cl)c1", "note": "[3-chloronitrobenzene]", "values": [
      {"measurement": "Henry solubility constant Hcp", "result": 1.4}
    ]},
    {"smiles": "CC1CCCC(O)C1", "note": "(stereo unspecified) [3-methylcyclohexanol]", "values": [
      {"measurement": "Henry solubility constant Hcp", "result": 2.9}
    ]},
    {"smiles": "Nc1ccccc1", "note": "[aminobenzene]", "values": [
      {"measurement": "Henry solubility constant Hcp", "result": 4.4}
    ]},
    {"smiles": "ClC1=C(Cl)[C@]2(Cl)[C@H]3[C@H]([C@@H]4C=C[C@H]3C4)[C@@]1(Cl)C2(Cl)Cl", "note": "[aldrin]", "values": [
      {"measurement": "Henry solubility constant Hcp", "result": 0.26}
    ]},
    {"smiles": "ClC1C(Cl)C(Cl)C(Cl)C(Cl)C1Cl", "note": "(stereo unspecified) [γ-1,2,3,4,5,6-hexachlorocyclohexane]", "values": [
      {"measurement": "Henry solubility constant Hcp", "result": 3.1}
    ]},
    {"smiles": "COP(=S)(OC)Oc1ccc([N+](=O)[O-])cc1", "note": "[methylparathion]", "values": [
      {"measurement": "Henry solubility constant Hcp", "result": 17}
    ]},
    {"smiles": "ClC1=C(Cl)C2(Cl)C3C4OC4C(Cl)C3C1(Cl)C2(Cl)Cl", "note": "(stereo unspecified) [heptachlorepoxide]", "values": [
      {"measurement": "Henry solubility constant Hcp", "result": 0.96}
    ]},
    {"smiles": "Cc1ccccc1O", "note": "[1-hydroxy-2-methylbenzene]", "values": [
      {"measurement": "Henry solubility constant Hcp", "result": 6.5}
    ]},
    {"smiles": "CCOC(=O)CC(SP(=S)(OC)OC)C(=O)OCC", "note": "(stereo unspecified) [malathion]", "values": [
      {"measurement": "Henry solubility constant Hcp", "result": 15}
    ]},
    {"smiles": "COP(=O)(OC)C(O)C(Cl)(Cl)Cl", "note": "(stereo unspecified)", "values": [
      {"measurement": "Henry solubility constant Hcp", "result": 55}
    ]},
    {"smiles": "CNC(=O)ON=C(C)SC", "note": "[methomyl]", "values": [
      {"measurement": "Henry solubility constant Hcp", "result": 200}
    ]},
    {"smiles": "O=[N+]([O-])c1ccc(O)c([N+](=O)[O-])c1", "note": "[2,4-dinitrophenol]", "values": [
      {"measurement": "Henry solubility constant Hcp", "result": 970}
    ]},
    {"smiles": "Cc1cccc(N)c1", "note": "[3-methylbenzenamine]", "values": [
      {"measurement": "Henry solubility constant Hcp", "result": 3.2}
    ]},
    {"smiles": "Nc1ccccc1Cl", "note": "[1-amino-2-chlorobenzene]", "values": [
      {"measurement": "Henry solubility constant Hcp", "result": 0.78}
    ]},
    {"smiles": "Cc1cccc([N+](=O)[O-])c1", "note": "[3-nitrotoluene]", "values": [
      {"measurement": "Henry solubility constant Hcp", "result": 1.3}
    ]},
    {"smiles": "CNC(=O)Oc1cccc2c1OC(C)(C)C2", "note": "[carbofuran]", "values": [
      {"measurement": "Henry solubility constant Hcp", "result": 24}
    ]},
    {"smiles": "OCc1ccccc1", "note": "[(hydroxymethyl)-benzene]", "values": [
      {"measurement": "Henry solubility constant Hcp", "result": 17}
    ]},
    {"smiles": "O=[N+]([O-])c1ccccc1O", "note": "[2-nitrophenol]", "values": [
      {"measurement": "Henry solubility constant Hcp", "result": 9.9}
    ]},
    {"smiles": "CC(C)CO", "note": "[2-methyl-1-propanol]", "values": [
      {"measurement": "Henry solubility constant Hcp", "result": 1.2}
    ]},
    {"smiles": "Cc1ccccc1N", "note": "[2-methylbenzenamine]", "values": [
      {"measurement": "Henry solubility constant Hcp", "result": 3}
    ]},
    {"smiles": "O=[N+]([O-])c1ccccc1", "note": "[nitrobenzene]", "values": [
      {"measurement": "Henry solubility constant Hcp", "result": 0.67}
    ]},
    {"smiles": "CCNc1nc(NC(C)C)nc(SC)n1", "note": "[ametryn]", "values": [
      {"measurement": "Henry solubility constant Hcp", "result": 21}
    ]},
    {"smiles": "COC(=O)c1ccccc1C(=O)OC", "note": "[dimethyl phthalate]", "values": [
      {"measurement": "Henry solubility constant Hcp", "result": 23}
    ]},
    {"smiles": "Nc1cccc(Cl)c1", "note": "[1-amino-3-chlorobenzene]", "values": [
      {"measurement": "Henry solubility constant Hcp", "result": 4.7}
    ]},
    {"smiles": "Clc1ccc(C(c2ccc(Cl)cc2)C(Cl)Cl)cc1", "note": "[1,1-dichloro-2,2-bis-(4-chlorophenyl)-ethane]", "values": [
      {"measurement": "Henry solubility constant Hcp", "result": 0.76}
    ]},
    {"smiles": "ClC1=C(Cl)[C@]2(Cl)[C@@H]3[C@@H]4C[C@@H]([C@H]5O[C@@H]45)[C@@H]3[C@@]1(Cl)C2(Cl)Cl", "note": "[dieldrin]", "values": [
      {"measurement": "Henry solubility constant Hcp", "result": 0.65}
    ]},
    {"smiles": "CN(C)C(=O)Nc1ccc(Cl)c(Cl)c1", "note": "[diuron]", "values": [
      {"measurement": "Henry solubility constant Hcp", "result": 35}
    ]},
    {"smiles": "O=[N+]([O-])c1ccc(O)cc1", "note": "[4-nitrophenol]", "values": [
      {"measurement": "Henry solubility constant Hcp", "result": 14}
    ]},
    {"smiles": "ClC1=C(Cl)[C@]2(Cl)[C@@H]3[C@H]4C[C@H]([C@@H]5O[C@H]45)[C@@H]3[C@@]1(Cl)C2(Cl)Cl", "note": "[endrin]", "values": [
      {"measurement": "Henry solubility constant Hcp", "result": 1.5}
    ]},
    {"smiles": "O=[N+]([O-])c1cccc2ccccc12", "note": "[1-nitronaphthalene]", "values": [
      {"measurement": "Henry solubility constant Hcp", "result": 4.6}
    ]},
    {"smiles": "O=[N+]([O-])c1ccc(Cl)cc1", "note": "[4-chloronitrobenzene]", "values": [
      {"measurement": "Henry solubility constant Hcp", "result": 1.4}
    ]}
  ]
}
